Laboratory results taken from patent US20240216385A1, “A PI3K-DELTA INHIBITOR FOR THE TREATMENT OF PANCREATIC CANCER” (IONCTURA SA, priority 2021, published 2024).

What was measured:
pancreatic cancer = pancreatic cancer patients, standard treatment; cited from earlier work
[1] = tested on: KPC mouse model of pancreatic ductal adenocarcinoma (PDAC); test: KPC mouse model of pancreatic cancer, histological analysis of pancreata; format: in vivo; conditions: KPC mice treated from 5 to 11 weeks of age; Compound 2 in mixed chow; FIG. 1
Text: Control animals received normal drinking water and standard chow.

[2] = tested on: KPC/WCB3 cells orthotopically injected into the pancreas; test: KPC/WCB3 orthotopic mouse model of pancreatic cancer, histological analysis of pancreata; format: in vivo; conditions: orthotopic KPC/WCB3, C57BL/6J mice; treatment from day 7 for one month; FIG. 4
Text: This model is constituted by the implantation of KPC/WBC3 cells originating from a spontaneous developed donor tumour in KPC mice into the pancreas of male wildtype C57BL/6J recipient mice. The pathology and tumour microenvironment in this model closely resemble human pancreatic cancer.
Control animals received normal drinking water and standard chow. One month after initiation treatment was stopped and mice were euthanized. Pancreata were harvested and analysed by histological analysis for level of fibrosis, number of Tregs and number of proliferating CAFs.

| Compound | average median overall survival (pancreatic cancer) [months] | response rate (pancreatic cancer) | number of low-grade (PanIN-1 and PanIN-2) lesions [1] | tumour burden [1] | Tregs [2] | proliferating CAFs [2] | tumour fibrosis score [2] |
| --- | --- | --- | --- | --- | --- | --- | --- |
| Nc1ccn([C@@H]2O[C@H](CO)[C@@H](O)C2(F)F)c(=O)n1 [gemcitabine] | 6 | 5-10% | – | – | – | – | – |
| C[C@H](NC(=O)CCc1nc2cccnc2n1Cc1ccc(OC(F)(F)F)cc1)c1ccc(Cl)cc1 [Compound 2, N-[(S)-1-(4-chloro-phenyl)-ethyl]-3-[3-(4-trifluoromethoxy-benzyl)-3H-imidazo[4,5-b]pyridin-2-yl]-propionamide] | – | – | reduces | without having significant effects | significantly reduces | significantly reduces | limited effect |
